Experimental data published in PMC12655637, “Design, Synthesis, and Mechanistic Study of Novel Ciprofloxacin/Thiazole Chalcone Hybrids as Potential Anticancer Agents” (Pharmaceuticals, 2025).

Tests used:
[1] = test system: NCI/ADR-RES; test: NCI-60 screening, one-dose (10 µM) and five-dose, SRB; type: cell-based, human; settings: Homo sapiens, 10 μM, Ovarian Cancer, read-out: Growth percentage
[2] = test system: MOLT-4; test: as above; type: cell-based, human; settings: Homo sapiens; 10 μM; MOLT-4, Leukemia; read-out: Growth percentage
[3] = test system: NCI-H226; test: as above; type: cell-based, human; settings: Homo sapiens; 10 μM; NCI-H226, Non-Small-Cell Lung Cancer; read-out: Growth percentage
[4] = test system: NCI-H522; test: as above; type: cell-based, human; settings: Homo sapiens; 10 μM; NCI-H522, Non-Small-Cell Lung Cancer; read-out: Growth percentage
[5] = test system: TK-10; test: as above; type: cell-based, human; settings: Homo sapiens; 10 μM; TK-10, Renal Cancer; read-out: Growth percentage
[6] = test system: SK-OV-3; test: as above; type: cell-based, human; settings: Homo sapiens; 10 μM; SK-OV-3, Ovarian Cancer; read-out: Growth percentage
[7] = test system: SK-MEL-2; test: as above; type: cell-based, human; settings: Homo sapiens; 10 μM; SK-MEL-2, Melanoma; read-out: Growth percentage
[8] = test system: A549/ATCC; test: as above; type: cell-based, human; settings: Homo sapiens, 10 μM, Non-Small-Cell Lung Cancer, read-out: Growth percentage
[9] = test system: OVCAR-8; test: as above; type: cell-based, human; settings: Homo sapiens; 10 μM; OVCAR-8, Ovarian Cancer; read-out: Growth percentage
[10] = test system: SN12C; test: as above; type: cell-based, human; settings: Homo sapiens, 10 μM, Renal Cancer, read-out: Growth percentage
[11] = test system: OVCAR-5; test: as above; type: cell-based, human; settings: 10 μM; OVCAR-5, Ovarian Cancer
[12] = test system: HCT-15; test: as above; type: cell-based, human; settings: Homo sapiens; 10 μM; HCT-15, Colon Cancer; read-out: Growth percentage
[13] = test system: SF-539; test: as above; type: cell-based, human; settings: Homo sapiens, SF-539, 10 μM; SF-539, CNS Cancer; read-out: Growth percentage
[14] = test system: OVCAR-3; test: as above; type: cell-based; settings: Homo sapiens; 10 μM; OVCAR-3, Ovarian Cancer; read-out: Growth percentage
[15] = test system: BT-549; test: as above; type: cell-based; settings: Homo sapiens; 10 μM; BT-549, Breast Cancer; read-out: Growth percentage
[16] = test system: MDA-MB-468; test: as above; type: cell-based, human; settings: Homo sapiens, MDA-MB-468, 10 μM; MDA-MB-468, Breast Cancer; read-out: Growth percentage
Source text: Control cells Test cells FLD
available usually at NCI library.
An aliquot of frozen drug concentrate is […]

[17] = test system: HS 578T; test: as above; type: cell-based, human; settings: Homo sapiens, 10 μM, Breast Cancer, read-out: Growth percentage
[18] = test system: MDA-MB-435; test: as above; type: cell-based; settings: Homo sapiens, MDA-MB-435, read-out: Growth percentage, 10 μM; MDA-MB-435, Melanoma
[19] = test system: T-47D; test: as above; type: cell-based, human; settings: 10 μM, Breast Cancer
[20] = test system: UACC-257; test: as above; type: cell-based, human; settings: Homo sapiens; 10 μM; UACC-257, Melanoma; read-out: Growth percentage
[21] = test system: SW-620; test: as above; type: cell-based, human; settings: Homo sapiens; 10 μM; SW-620, Colon Cancer; read-out: Growth percentage
[22] = test system: MDA-MB231/ATCC; test: as above; type: cell-based; settings: 10 μM; MDA-MB231/ATCC, Breast Cancer
[23] = test system: 60 human cancer cell lines; test: NCI-60 screening, full panel (mean growth, MID a, ranges over all lines); settings: Homo sapiens, read-out: Mean growth percentage
Description: The screening was performed in accordance with the protocols set forth by the Drug Evaluation Department of the National Cancer Institute (NCI), Bethesda, USA, for in vitro anticancer efficacy at a single concentration of 10 µM against a panel of 60 cancer cell lines derived from nine distinct organs (https://dctd.cancer.gov/data-tools-biospecimens/data (accessed on 15 March 2023 and 6 January 2024)) [37].
The log10 GI50, log10 TGI, and log10 LC50 values were subsequently calculated as the averages of the log10 values of the respective individual GI50, TGI, and LC50 measurements. Negative numbers signified the most sensitive cell lines.
One way to measure a compound’s selectivity is to divide its subpanel MID^b (in μM) by the MID^a (in μM), which is the average sensitivity of all cell lines to the test agent.
At the National Cancer Institute (NCI) in Bethesda, USA, researchers examined the anticancer potential of the target compounds under investigation using nine panels of sixty different cell lines obtained from nine different cancers that were housed in the NCI library. Following the protocols laid out by the National Cancer Institute (https://dctd.cancer.gov/data-tools-biospecimens/data (accessed on 15 March 2023 and 6 January 2024)), the screening procedures were carried out [37]. The anticancer screening was carried out at a single dose of 10^−5 M; the results obtained were expressed as growth inhibition (%).
The anti-cancer potential of the tested compounds was evaluated at the National cancer institute (NCI), Bethesda, USA, against 9 panels of 60 various cell lines derived from nine human tumours available usually at NCI library. The procedures for the screening were described in details in NCI website (dttp://www.dtp.nci.nih.gov.) and were done according to NCI protocols. The anticancer screening was carried out at single dose of 10^-5 M. The results obtained as growth inhibition (%).
Cell lines were grown in Roswell Park Memorial Institute medium (RPMI) with 5% fetal bovine serum and 2% μM L-glutamine. Cancer cells are inoculated into 96 well microtiter plates in 100 μL at plating densities ranging from 5000 to 40,000 cells/well depending on the doubling time of individual cell lines. Then microtiter plates are incubated at 37 °C, 5% CO2, 95% air and 100% relative humidity for 24 h prior to the addition of the tested compounds. After 24 h, two plates of each cell line are fixed in situ with trichloroacetic acid (TCA). The tested compounds were dissolved in dimethyl sulfoxide (DMSO) and stored in the freezer prior to use. An aliquot of frozen drug concentrate is diluted to the desired concentration with complete medium containing 50 μg/mL gentamicin.

[24] = test system: HL-60(TB); test: NCI-60 screening, one-dose (10 µM) and five-dose, SRB; type: cell-based, human; settings: Homo sapiens, HL-60, 10 μM; HL-60(TB), Leukemia; read-out: Growth percentage
[25] = test system: CCRF-CEM; test: as above; type: cell-based, human; settings: Homo sapiens, 10 μM, Leukemia, read-out: Growth percentage
[26] = test system: ACHN; test: as above; type: cell-based, human; settings: Homo sapiens, 10 μM, Renal Cancer, read-out: Growth percentage
[27] = test system: KM12; test: as above; type: cell-based, human; settings: Homo sapiens, KM12, 10 μM; KM12, Colon Cancer; read-out: Growth percentage
[28] = test system: SNB-19; test: as above; type: cell-based; settings: Homo sapiens; 10 μM; SNB-19, CNS Cancer; read-out: Growth percentage
[29] = test system: HOP-62; test: as above; type: cell-based, human; settings: Homo sapiens, HOP-62, 10 μM; HOP-62, Non-Small-Cell Lung Cancer; read-out: Growth percentage
[30] = test system: HT29; test: as above; type: cell-based, human; settings: Homo sapiens, HT-29; 10 μM; HT29, Colon Cancer; read-out: Growth percentage

Row | Structure (SMILES) | activity at 10 µM [1] [%] | activity at 10 µM [2] [%] | activity at 10 µM [3] [%] | activity at 10 µM [4] [%] | activity at 10 µM [5] [%] | activity at 10 µM [6] [%] | activity at 10 µM [7] [%] | activity at 10 µM [8] [%] | activity at 10 µM [9] [%] | activity at 10 µM [10] [%] | Growth percentage [11] [%] | activity at 10 µM [12] [%] | activity at 10 µM [13] [%] | activity at 10 µM [14] [%] | activity at 10 µM [15] [%] | activity at 10 µM [16] [%] | activity at 10 µM [17] [%] | activity at 10 µM [18] [%] | Growth percentage [19] [%] | activity at 10 µM [20] [%] | also measured
1 | Cc1nc(SCC(=O)N2CCN(c3cc4c(cc3F)c(=O)c(C(=O)O)cn4C3CC3)CC2)sc1C(=O)/C=C/c1ccc([N+](=O)[O-])cc1 [Compound 4h, (E)-1-Cyclopropyl-6-fluoro-7-(4-(2-((4-methyl-5-(3-(4-nitrophenyl)acryloyl)thiazol-2-yl)thio)acetyl)piperazin-1-yl)-4-oxo-1,4-dihydroquinoline-3-carboxylic Acid] | 88.8 | 62.7 | 87.9 | 27.9 | 116 | 119 | 87.7 | 99.7 | 68.9 | 78.3 | 121.1 | 62.3 | 67.9 | 49.4 | 83.9 | 85.2 | 99.6 | 88.4 | 64.1 | 82.6 | activity at 10 µM [21]: 78.2%; Growth percentage [22]: 94.5%; activity at 10 µM [23]: 77.6%; activity at 10 µM [24]: 80.9%; activity at 10 µM [25]: 45.7%; activity at 10 µM [26]: 96.7%; activity at 10 µM [27]: 54.4%; activity at 10 µM [28]: 72.2%; activity at 10 µM [29]: 88.3%; activity at 10 µM [30]: 76.1%
2 | Cc1nc(SCC(=O)N2CCN(c3cc4c(cc3F)c(=O)c(C(=O)O)cn4C3CC3)CC2)sc1C(=O)/C=C/c1ccc(N(C)C)cc1 [Compound 4i, (E)-1-Cyclopropyl-7-(4-(2-((5-(3-(4-(dimethylamino)phenyl)acryloyl)-4-methylthiazol-2-yl)thio)acetyl)piperazin-1-yl)-6-fluoro-4-oxo-1,4-dihydroquinoline-3-carboxylic Acid] | 97.1 | 89.2 | 100 | 78.5 | 91.8 | 119 | 85.5 | 103 | 76.5 | 81.1 | 102.5 | 83.2 | 74.4 | 172 | 12.9 | 87.6 | 81.4 | 26.6 | 88.2 | 108 | activity at 10 µM [21]: 117%; Growth percentage [22]: 73.1%; activity at 10 µM [23]: 83.9%; activity at 10 µM [24]: 89.5%; activity at 10 µM [25]: 90.6%; activity at 10 µM [26]: 97.7%; activity at 10 µM [27]: 79.4%; activity at 10 µM [28]: 88.6%; activity at 10 µM [29]: 105%; activity at 10 µM [30]: 47.9%
